The values that follow come from US6875761B2 (Eisai Co., Ltd., priority 1997, dated 2005).

One assay has as its target T1, serotonin 2 receptor (Rattus norvegicus, UniProt P14842).
T1 construct: To the receptor fraction of the cerebral cortex were added a test compound and 0.3 nM of [^3H] ketanserin; from tissue; host or cells: rat cerebral cortex membrane fraction
The assay is described as follows: Binding test on [3H] ketanserin, cerebral cortex receptor fraction. Also noted: species or system SD rats. To be noted: 0.3 nM [3H] ketanserin, 37° C. 15 min, read-out: 5HT2.

Another assay deals with T2, serotonin 1A receptor (Rattus norvegicus, UniProt P19327).
T2 construct: To the receptor fraction of the hippocampus were added a test compound and 0.5 nM of [^3H]; 8-hydroxy-dipropylaminotetralin; from tissue; host or cells: rat hippocampus membrane fraction
T2 sequence (P19327 1-422): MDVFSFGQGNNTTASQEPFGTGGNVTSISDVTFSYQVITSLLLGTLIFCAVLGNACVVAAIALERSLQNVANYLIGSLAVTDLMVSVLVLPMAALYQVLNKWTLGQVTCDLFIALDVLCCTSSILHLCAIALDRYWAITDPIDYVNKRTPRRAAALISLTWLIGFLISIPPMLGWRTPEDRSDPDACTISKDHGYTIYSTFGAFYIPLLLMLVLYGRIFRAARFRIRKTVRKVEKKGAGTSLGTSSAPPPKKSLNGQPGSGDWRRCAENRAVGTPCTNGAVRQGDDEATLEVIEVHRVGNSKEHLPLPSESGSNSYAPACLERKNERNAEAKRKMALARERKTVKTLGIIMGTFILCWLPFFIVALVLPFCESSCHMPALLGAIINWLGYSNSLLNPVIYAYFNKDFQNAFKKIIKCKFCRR
The assay is described as follows: Binding test on [3H] 8-hydroxy-dipropylaminotetralin, hippocampus receptor fraction. Also noted: species or system SD rats. As to conditions: rat hippocampus receptor fraction, 0.5 nM [3H] 8-OH-DPAT, room temperature 30 min; read-out: 5HT1.

Molecules are shown by their SMILES. Where a name gives a salt, the structure may show the parent alone.

T1 sequence (P14842 whole entry): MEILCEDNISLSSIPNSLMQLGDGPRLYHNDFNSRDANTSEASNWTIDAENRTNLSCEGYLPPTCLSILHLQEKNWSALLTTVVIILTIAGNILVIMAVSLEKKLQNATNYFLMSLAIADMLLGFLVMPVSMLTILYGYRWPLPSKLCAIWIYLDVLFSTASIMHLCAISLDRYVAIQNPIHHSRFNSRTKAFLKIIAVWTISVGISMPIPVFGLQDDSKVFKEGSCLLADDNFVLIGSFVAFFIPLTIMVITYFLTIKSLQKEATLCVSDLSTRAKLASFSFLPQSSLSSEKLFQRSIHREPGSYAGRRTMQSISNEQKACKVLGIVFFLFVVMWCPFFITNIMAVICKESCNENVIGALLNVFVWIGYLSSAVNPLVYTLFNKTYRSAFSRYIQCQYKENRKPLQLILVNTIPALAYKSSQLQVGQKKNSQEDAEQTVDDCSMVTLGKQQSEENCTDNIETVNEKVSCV
Method for serotonin 2 receptor: Methysergide maleate was dissolved in distilled water before using.
Use was made of SD rats aged 6 to 8 weeks.
The rats were sacrificed by dcapitation to extirpate the cerebra.
Each mixture was homogenized by using a Teflon glass homogenizer and centrifuged as 1,000× g for 10 min. The supernatant thus obtained was further centrifuged at 20,000× g for 20 min. […] After centrifuging at 20,000× g for 20 min, the obtained precipitate was further suspended and centrifuged twice each in the same manner. […] This receptor fraction was stored at −80° C. until using.
To the receptor fraction of the cerebral cortex were added a test compound and 0.3 nM of [^3H] ketanserin and the resultant mixture was incubated at 37° C. for 15 min. Next, it was filtered through a glass filter with the use of a cell harvester. After washing the glass filter with 50 mM Tris hydrochloride (pH 7.4), the radioactivity of the receptor was measured with a liquid scintillation counter. The binding detected in the presence of 1 μM of methysergide was referred to as the nonspecific binding.
IC50 was calculated by the probit method, while Ki was determined in accordance with the following formula: Ki=IC50(1+c/Kd) wherein c represents the concentration of the radioisotope-labeled compound, and Kd represents the dissociation constant of the radioisotope-labeled compound with respect to the receptor determined by Scatchard's analysis.

For the compound `CCN1CCN(c2nc(-c3ccc(OCCO)cc3)cc3cccc(F)c23)CC1` [Example 234, 1-(1-ethylpiperazin-4-yl)-8-fluoro-3-[4-(2-hydroxyethoxy)phenyl]isoquinoline dihydrochloride], the Ki on serotonin 2 receptor amounted to 1.11 nM; on serotonin 1A receptor, 129 nM.

Turning to `CCN1CCN(c2nc(-c3ccc(OCCOC)c(OCCOC)c3)cc3ccccc23)CC1` [Example 43, 3-[3,4-Di(2-Methoxyethoxy)Phenyl]-1-(4-Ethylpiperazin-1-Yl)Isoquinoline Hydrochloride], the Ki turned out to be 66.6 nM on serotonin 2 receptor and 29.3 nM on serotonin 1A receptor.

Regarding `CCN1CCN(c2nc(-c3ccc(S(N)(=O)=O)cc3)cc3ccccc23)CC1` [Example 74, 3-(4-Sulfonamidephenyl)-1-(4-Ethylpiperazin-1-Yl)Isoquinoline Hydrochloride], the Ki on serotonin 2 receptor was 7.7 nM; at serotonin 1A receptor, 4.6 nM.

As for `CCN1CCN(c2nc(-c3ccc(CCC(C)(C)O)cc3)cc3ccsc23)CC1` [Example 439, 7-(4-ethylpiperazin-1-yl)-5-[4-(3-hydroxy-3-methylbutyl)phenyl]thieno[2,3-c]pyridine dihydrochloride], the Ki on serotonin 2 receptor was found to be 6.03 nM; on serotonin 1A receptor, 44.2 nM.

`CCN1CCN(c2nc(-c3ccc(S(=O)(=O)N(C)C)cc3)cc3ccccc23)CC1` [Example 362, 1-(4-ethylpiperazin-1-yl)-3-[4-(N,N-dimethylsulfamoyl)phenyl]isoquinoline dihydrochloride]: the Ki on serotonin 2 receptor stood at 24.1 nM; at serotonin 1A receptor it was 4.5 nM.

On to `CCN1CCN(c2nc(-c3ccc(OCCO)cc3)cc3cscc23)CC1` [Example 278, 4-(4-ethylpiperazin-1-yl)-6-[4-(2-hydroxyethoxy)phenyl]thieno-[3,4-c]pyridine oxalate], for which the Ki turned out to be 4.61 nM at serotonin 2 receptor and 41.3 nM on serotonin 1A receptor.

For the compound `CCN1CCN(c2nc(N3CCN(c4ccccc4)CC3)cc3ccccc23)CC1` [Example 158, 1-(1-ethylpiperazin-4-yl)-3-(1-phenylpiperazin-4-yl)isoquinoline], the Ki on serotonin 2 receptor is 1.08 nM; on serotonin 1A receptor, 0.41 nM.

On to `CCN1CCN(c2nc(-c3ccnc(OC)c3)cc3ccccc23)CC1` [Example 405, 1-(4-ethylpiperazin-1-yl)-3-(2-methoxypyridin-4-yl)isoquinoline], for which the results for the Ki at serotonin 2 receptor and at serotonin 1A receptor were 10.2 nM and 22.6 nM, respectively.

With `CCC(=O)Nc1ccc(-c2cc3ccccc3c(N3CCN(CC)CC3)n2)cc1` [Example 69, 3-(4-Ethylcarbonylaminophenyl)-1-(4-Ethylpiperazin-1-Yl)Isoquinoline Hydrochloride], the Ki amounted to 17.3 nM at serotonin 2 receptor and 17.2 nM at serotonin 1A receptor.

Consider `CN1CCN(c2nc(-c3ccc(OCC(C)(C)O)cc3)cc3sccc23)CC1` [Example 288, 6-[4-(2-methyl-2-hydroxypropoxy)phenyl]-4-(4-methylpiperazin-1-yl)thieno[3,2-c]pyridine hydrochloride], for which the Ki at serotonin 2 receptor stood at 0.14 nM; at serotonin 1A receptor, 80.9 nM.

In the case of `CCN1CCN(c2nc(-c3cncc(CCCOC)c3)cc3ccccc23)CC1` [Example 140, 1-(1-Ethylpiperazin-4-yl)-3-[3-(3-Methoxypropyl)Pyridin-5-yl]Isoquinoline Oxalate], the Ki at serotonin 2 receptor was 36.7 nM; at serotonin 1A receptor it was 22.1 nM.

Turning to `CCN1CCN(c2nc(-c3ccc(OCCO)nc3)cc3ccsc23)CC1` [Example 268, 5-[2-(2-hydroxyethoxy)pyridin-5-yl]-7-(4-ethylpiperazin-1-yl)thieno[2,3-c]pyridine Oxalate], the figures for the Ki on serotonin 2 receptor and at serotonin 1A receptor were 86 nM and 16.5 nM, respectively.

Regarding `CCN1CCN(c2nc(-c3ccc(CO)c(CO)c3)cc3ccccc23)CC1` [Example 394, 1-(4-Ethylpiperazin-1-yl)-3-[(3,4-Dihydroxymethyl)Phenyl]Isoquinoline Dihydrochloride], the figures for the Ki at serotonin 2 receptor and on serotonin 1A receptor were 32.9 nM and 10.7 nM, respectively.

For the compound `CCN1CCN(c2nc(-c3ccc(CCCF)nc3)cc3ccccc23)CC1` [Example 133, 1-(1-Ethylpiperazin-4-yl)-3-[2-(3-Fluoropropyl)Pyridin-5-yl]Isoquinoline], the Ki on serotonin 2 receptor was 6.2 nM; on serotonin 1A receptor, 2.9 nM.

Turning to `CCN1CCN(c2nc(-c3ccc(CCCO)cc3)cc3cccnc23)CC1` [Example 247, 8-(1-ethylpiperazin-4-yl)-6-[4-(3-hydroxypropyl)phenyl]-1,7-naphthyridine Dihydrochloride], the values for the Ki on serotonin 2 receptor and on serotonin 1A receptor were 28.7 nM and 25.1 nM, respectively.

On to `CCC(F)c1ccc(-c2cc3ccccc3c(N3CCN(CC)CC3)n2)cc1` (centres unmarked) [Example 5, 1-(4-ethylpiperazin-1-yl)-3-[4-(1-fluoropropyl)phenyl]isoquinoline Hydrochloride], for which the Ki on serotonin 2 receptor came out at 2.2 nM; on serotonin 1A receptor it was 21 nM.

For the compound `CCN1CCN(c2nc(-c3ccc(OCCO)c(Cl)c3)cc3ccccc23)CC1` [Example 39, 3-[3-chloro-4-(2-hydroxyethoxy)phenyl]-1-(4-ethylpiperazin-1-yl)isoquinoline hydrochloride], the results for the Ki at serotonin 2 receptor and at serotonin 1A receptor were 4.9 nM and 26 nM, respectively.

With `CCN1CCN(c2nc(-c3csc(CO)c3)cc3ccccc23)CC1` [Example 161, 1-(1-ethylpiperazin-4-yl)-3-(2-hydroxymethylthiophen-4-yl)isoquinoline dihydrochloride], the Ki at serotonin 2 receptor was 23.8 nM; at serotonin 1A receptor it was 10.7 nM.

In the case of `CCS(=O)(=O)NCc1ccc(-c2cc3ccccc3c(N3CCN(CCO)CC3)n2)cc1` [Example 243, 3-(4-ethylsulfonylaminomethylphenyl)-1-[4-(2-hydroxyethyl)piperazin-1-yl]isoquinoline Hydrochloride], the Ki worked out at 6.7 nM on serotonin 2 receptor and 13 nM at serotonin 1A receptor.

Take `CCN1CCN(c2nc(-c3ccc(CCO)cc3)cc3ccccc23)CC1` [Example 351, 1-(4-ethylpiperazin-1-yl)-3-[4-(2-hydroxyethyl)phenyl]isoquinoline dihydrochloride]: the Ki was determined as 6.4 nM on serotonin 2 receptor and 15.7 nM on serotonin 1A receptor.

Consider `CCN1CCN(c2nc(-c3ccc(COCCO)cc3)cc3ccccc23)CC1` [Example 44, 3-[4-(2-Hydroxyethoxylmethylphenyl]-1-(4-ethylpiperazin-1-Yl)Isoquinoline Hydrochloride], for which the Ki on serotonin 2 receptor is 9 nM; at serotonin 1A receptor, 55.4 nM.

As to `CCN1CCN(c2nc(-c3ccc(OCC4OCCO4)cc3)cc3sccc23)CC1` [Example 460, 4-(4-ethylpiperazin-1-yl)-6-[4-(1,3-dioxolan-2-yl)methoxyphenyl]thieno[3,2-c]pyridine oxalate], the results for the Ki on serotonin 2 receptor and at serotonin 1A receptor were 175 nM and 5.32 nM, respectively.

For `CCN1CCN(c2nc(/C=C(\C)c3cccc(N4CCOCC4)c3)cc3ccccc23)CC1` [Example 207, 3-{(E)-2-Methyl-2-[3-(4-Morpholinyl)Phenyl]Ethenyl}-1-(4-Ethylpiperazin-1-Yl)Isoquinoline Oxalate], the Ki stood at 17.9 nM at serotonin 2 receptor and 22.2 nM on serotonin 1A receptor.

`CCN1CCN(c2nc(-c3ccc(OCCCO)cc3)cc3sccc23)CC1` [Example 462, 4-(4-ethylpiperazin-1-yl)-6-[4-(3-hydroxypropoxy)phenyl]thieno[3,2-c]pyridine dihydrochloride]: the Ki on serotonin 2 receptor came to 2.84 nM; on serotonin 1A receptor, 4.83 nM.

As for `CCN1CCN(c2nc(-c3ccc(C4CCCO4)cc3)cc3ccccc23)CC1` (centres unmarked) [Example 396, 1-(4-Ethylpiperazin-1-yl)-3-[4-(Tetrahydrofuran-2-yl)Phenyl]Isoquinoline Dihydrochloride], the Ki on serotonin 2 receptor stood at 2.6 nM; on serotonin 1A receptor, 50.4 nM.
